{"source": "patent US7838695B2", "about": "“Neuroactive substance and uses of one such substance” (Universite de Nantes, priority 2003, dated 2010)", "key": {"[1]": {"test_system": "low voltage activated calcium channels (LVA)", "experiment": "Overall LVA calcium current in DUM neurons (patch-clamp)", "type": "cell-based, Periplaneta americana", "conditions": "+50 mV depolarising pulse from −100 mV reference potential"}, "cockroach DUM neurons [2]": {"test_system": "cockroach DUM neurons", "experiment": "Spontaneous pacemaker electrical activity of DUM neurons (whole cell patch-clamp)", "type": "cell-based, Periplaneta americana", "experimental": "(§1) A second experiment was conducted on dorsal unpaired median neurons (DUM neurons) from the central nervous system of cockroaches (Periplaneta americana). In particular, these neurons secrete a biogenous amine, octopamine, a neuromediator wherein the chemical structure is similar to […] in vertebrates. They represent a good study model as they display electrophysiological properties similar to those of dopaminergic neurons in vertebrates. These DUM neurons are isolated from the medio-dorsal line of the last terminal abdominal ganglion of the nerve chain of adult male cockroaches, by means of enzyme digestion and mechanical dissociation, according to the technique described by […] et al (J. Exp. Biol., 1989, 144; 535-549). The neurons isolated in this way are kept in culture at 29° C. for 24 hrs before testing. The whole cell configuration patch-clamp technique is used to measure the electrical activity and the calcium currents (imposed potential and/or current conditions) according to the model described by Grolleau and […]. Neurophysiol. 1995, 73; 160-171)."}, "[3]": {"test_system": "axonal cockroach sodium and potassium channels", "experiment": "Isolated giant axon under imposed potential and imposed current", "type": "cell-based, Periplaneta americana", "experimental": "Firstly, the neuronal sodium and potassium channels were studied. These channels are involved in action potential generation. This study was conducted on cockroach (Periplaneta americana) giant axons. The giant axon of these cockroaches was isolated in ventral abdominal nerve chain connective tissue. During the experiment, the axon is immersed in physiological fluid. The experiment is performed under imposed potential and imposed current in the absence and presence of the substance according to formula (II)."}, "[4]": {"test_system": "transient LVA calcium channels (tLVA)", "experiment": "tLVA calcium current in DUM neurons (overall LVA minus mLVA)", "type": "cell-based, Periplaneta americana"}, "cockroach DUM neurons [5]": {"test_system": "cockroach DUM neurons", "experiment": "Electrical activity of DUM neurons activated by injecting depolarising current", "type": "cell-based, Periplaneta americana", "experimental": "as §1, with “160-171). Experiments were also conducted on an electrical activity activated by injecting a level of depolarising current controlled in amplitude and duration (FIG. 6). The results obtained under these conditions are in agreement with the experiments conducted on spontaneous activity. […]” for “160-171).”"}, "[6]": {"test_system": "Phormia terrae novae larvae", "experiment": "Neuroactivity test by injection in Diptera larvae", "type": "in vivo", "experimental": "The neuroactivity of the substance according to formula (I) was then tested by injecting in Diptera larvae. Within this scope, the inventors used Phormia terrae novae species Cyloraphe larvae at larval stage III, just before the imago stage enabling metamorphosis to a pupa or nymph. […] The product is injected using a precision micro-syringe fitted with a bevelled hypodermic needle. The needle is inserted into the last abdominal segment of the animal on the dorsal side. The injection is deemed successful if the larva is still mobile at the tip of the needle. In this type of test, contraction or relaxation for at least 5 seconds is defined as a positive response, but the intensity and duration are dose-dependent while the absence of any symptom for 10 min represents a negative response. Substance (II) was tested by injecting a single 350 μg dose of product per larva (mean larva weight 70 mg), by injecting 7 A1 of a 50 mg/ml solution of the product in the 85-15 v/v water:DMSO mixture. This concentration was then diluted by half until no larval activity was detected."}, "[7]": {"test_system": "high voltage activated calcium channels (HVA)", "experiment": "HVA calcium current in DUM neurons (patch-clamp)", "type": "cell-based, Periplaneta americana"}, "[8]": {"test_system": "maintained LVA calcium channels (mLVA)", "experiment": "mLVA calcium current in DUM neurons in the presence of nickel chloride (patch-clamp)", "type": "cell-based, Periplaneta americana", "conditions": "in the presence of 100 μm nickel chloride"}}, "note": "“Also recorded” adds a separate entry of the source."}
{"smiles": "CC(=O)O[C@@H]1CC[C@@]23O[C@@H]2[C@H](O)C[C@@H](C)[C@]3(C)[C@@H]1C(C)=O", "note": "[substance according to formula (II), 6S-acetyl-4R,5R-dimethyl-1R(10S)-epoxy-2R-hydroxy-7R-acetoxydecahydronaphthalene]", "values": [{"measurement": "maintained component measured at the end of the depolarising pulse", "setting": "[1]", "result": "not affected"}, {"measurement": "increase of amplitude of the overall LVA calcium current", "setting": "[1]; n=7", "result": 81, "unit": "%"}, {"measurement": "action potential amplitude", "setting": "cockroach DUM neurons [2]; 4-AP 2 mM", "result": "remains unchanged"}, {"measurement": "post-hyperpolarisation phase", "setting": "cockroach DUM neurons [2]; 4-AP 2 mM", "result": "increased"}, {"measurement": "pre-depolarisation slope", "setting": "cockroach DUM neurons [2]; 4-AP 2 mM", "result": "higher"}, {"measurement": "action potential frequency increased by a factor", "setting": "cockroach DUM neurons [2]; 100 μm substance, in the presence of 4-AP 2 mM", "result": 2.1}, {"measurement": "activity on axonal sodium and potassium channels (change on the action potential)", "setting": "[3]", "result": "no activity"}, {"measurement": "action on tLVA calcium channel", "setting": "[4]", "result": "specific activator; also recorded: specific action; also recorded: potentiating"}, {"measurement": "action potential amplitude or duration", "setting": "cockroach DUM neurons [5]", "result": "No change"}, {"measurement": "discharge frequency", "setting": "cockroach DUM neurons [5]", "result": "increase in the discharge frequency"}, {"measurement": "MAC", "setting": "[6]; calculated with molecular weight 296 g per mole", "result": "approximately 1 mM/mg of larvae"}, {"measurement": "minimum active concentration on diptera larvae", "setting": "[6]; injection into larvae, halving dilutions until no larval activity", "result": "3.1 μg per μl and per 10 mg of larvae"}, {"measurement": "reduction of HVA calcium current amplitude", "setting": "[7]; +90 mV depolarising pulse from −100 mV reference potential, n=7", "result": 9, "unit": "%"}, {"measurement": "amplitude of the HVA current", "setting": "[7]; in the presence of 100 μm nickel chloride", "result": "neither the amplitude of the mLVA current (FIGS. 10 and 11) or that of HVA are modified"}, {"measurement": "amplitude of the mLVA current", "setting": "[8]", "result": "neither the amplitude of the mLVA current (FIGS. 10 and 11) or that of HVA are modified"}]}
